# Laboratory results published in ChEMBL document CHEMBL5052856, “Inhibitors of apol1 and methods of using same” (2021).
# Assays:
# Apolipoprotein L1 = Apolipoprotein L1 (Homo sapiens, UniProt O14791); assay: Inhibition of APOL1 G1 variant in human HEK293-T-REx cells measured by Thallium assay; assay type: cell-based
# [1] = tested on: Trypanosoma brucei brucei; assay: Antitrypanosomal activity against Trypanosoma brucei brucei assessed as trypanosome lysis using recombinant APOL1 protein G1 variant and measured by Alamar blue based fluoresence assay; assay type: functional, organism-based
Compound,IC50 (Apolipoprotein L1),IC50 [1]
O=C(NCCO)[C@H]1C[C@H](c2c(-c3ccc(F)cc3)[nH]c3c(F)cc(F)cc32)C1,< 250 nM,< 250 nM
NC(=O)C1(NC(=O)[C@H]2C[C@H](c3c(-c4ccc(F)cc4)[nH]c4c(F)cc(F)cc43)C2)CC1,0.25 nM,250 nM
NC(=O)[C@@H]1CCCN1C(=O)[C@H]1C[C@H](c2c(-c3ccc(F)cc3)[nH]c3c(F)cc(F)cc32)C1,> 1000 nM,> 1000 nM
CC(NC(=O)[C@H]1C[C@H](c2c(-c3ccc(F)cc3)[nH]c3c(F)cc(F)cc32)C1)c1ccnn1C (some centres not stated),> 1000 nM,> 1000 nM
CN(CC(C)(C)O)C(=O)[C@H]1C[C@H](c2c(-c3ccc(F)cc3)[nH]c3c(F)cc(F)cc32)C1,> 1000 nM,> 1000 nM
NC(=O)[C@H]1C[C@H](c2c(-c3ccc(F)cc3)[nH]c3c(F)cc(F)cc32)C1,0.25 nM,< 250 nM
CC1(O)CC(C(=O)N2CCN(C(=O)[C@H]3C[C@H](c4c(-c5ccc(F)cc5)[nH]c5c(F)cc(F)cc54)C3)CC2(C)C)C1 (some centres not stated),> 1000 nM,> 1000 nM
CC(CO)N(C)C(=O)[C@H]1C[C@H](c2c(-c3ccc(F)cc3)[nH]c3c(F)cc(F)cc32)C1 (some centres not stated),< 250 nM,250 nM
O=C([C@H]1C[C@H](c2c(-c3ccc(F)cc3)[nH]c3c(F)cc(F)cc32)C1)N(CCO)CCCO,> 1000 nM,250 nM
CN(CC1(CO)CC1)C(=O)[C@H]1C[C@H](c2c(-c3ccc(F)cc3)[nH]c3c(F)cc(F)cc32)C1,> 1000 nM,> 1000 nM
O=C(NC(CO)CF)[C@H]1C[C@H](c2c(-c3ccc(F)cc3)[nH]c3c(F)cc(F)cc32)C1 (some centres not stated),< 250 nM,< 250 nM
O=C(NCC1(CO)COC1)[C@H]1C[C@H](c2c(-c3ccc(F)cc3)[nH]c3c(F)cc(F)cc32)C1,> 1000 nM,> 1000 nM
CC1(C)CN(C(=O)[C@H]2C[C@H](c3c(-c4ccc(F)cc4)[nH]c4c(F)cc(F)cc43)C2)CC1O (some centres not stated),> 1000 nM,> 1000 nM
NC(=O)CNC[C@H]1C[C@H](c2c(-c3ccc(F)cc3)[nH]c3c(F)cc(F)cc32)C1,< 250 nM,< 250 nM
O=C(N[C@@H]1CCC[C@H]1O)[C@H]1C[C@H](c2c(-c3ccc(F)cc3)[nH]c3c(F)cc(F)cc32)C1,> 1000 nM,> 1000 nM
O=C1CCC(NC(=O)[C@H]2C[C@H](c3c(-c4ccc(F)cc4)[nH]c4c(F)cc(F)cc43)C2)C(=O)N1 (some centres not stated),0.25 nM,250 nM
CC1(C)CN(C(=O)[C@H]2C[C@H](c3c(-c4ccc(F)cc4)[nH]c4c(F)cc(F)cc43)C2)CCC1O (some centres not stated),> 1000 nM,> 1000 nM
NCC(O)CNC(=O)[C@H]1C[C@H](c2c(-c3ccc(F)cc3)[nH]c3c(F)cc(F)cc32)C1 (some centres not stated),0.25 nM,250 nM
O=C1NCCCC1NC(=O)[C@H]1C[C@H](c2c(-c3ccc(F)cc3)[nH]c3c(F)cc(F)cc32)C1 (some centres not stated),0.25 nM,250 nM
O=C(N[C@@H]1CCOC1)[C@H]1C[C@H](c2c(-c3ccc(F)cc3)[nH]c3c(F)cc(F)cc32)C1,0.25 nM,250 nM
CC1(NC(=O)[C@H]2C[C@H](c3c(-c4ccc(F)cc4)[nH]c4c(F)cc(F)cc43)C2)CCNC1=O (some centres not stated),0.25 nM,< 250 nM
NC(=O)CNC[C@H]1C[C@@H](c2c(-c3ccc(F)cc3)[nH]c3c(F)cc(F)cc32)C1,< 250 nM,< 250 nM
CO[C@H]1CCN(C(=O)[C@H]2C[C@H](c3c(-c4ccc(F)cc4)[nH]c4c(F)cc(F)cc43)C2)C1,> 1000 nM,> 1000 nM
CC(NC(=O)[C@H]1C[C@H](c2c(-c3ccc(F)cc3)[nH]c3c(F)cc(F)cc32)C1)c1ccn(C)n1 (some centres not stated),0.25 nM,< 250 nM
O=C([C@H]1C[C@H](c2c(-c3ccc(F)cc3)[nH]c3c(F)cc(F)cc32)C1)N(CCO)c1cnccn1,> 1000 nM,> 1000 nM
CC1(O)CN(C(=O)[C@H]2C[C@H](c3c(-c4ccc(F)cc4)[nH]c4c(F)cc(F)cc43)C2)C1,0.25 nM,250 nM
